# From BindingDB's records for doi:10.1046/j.1460-9568.2003.02744.x (University of Innsbruck, 2003)
# How the values were obtained:
# [1] = target: Kappa-type opioid receptor (Rattus norvegicus, UniProt P34975)
# [2] = target: Delta-type opioid receptor (Rattus norvegicus, UniProt P33533)
# Mu-type opioid receptor = Mu-type opioid receptor (Rattus norvegicus, UniProt P33535)
# Chain of Mu-type opioid receptor (P33535 whole entry): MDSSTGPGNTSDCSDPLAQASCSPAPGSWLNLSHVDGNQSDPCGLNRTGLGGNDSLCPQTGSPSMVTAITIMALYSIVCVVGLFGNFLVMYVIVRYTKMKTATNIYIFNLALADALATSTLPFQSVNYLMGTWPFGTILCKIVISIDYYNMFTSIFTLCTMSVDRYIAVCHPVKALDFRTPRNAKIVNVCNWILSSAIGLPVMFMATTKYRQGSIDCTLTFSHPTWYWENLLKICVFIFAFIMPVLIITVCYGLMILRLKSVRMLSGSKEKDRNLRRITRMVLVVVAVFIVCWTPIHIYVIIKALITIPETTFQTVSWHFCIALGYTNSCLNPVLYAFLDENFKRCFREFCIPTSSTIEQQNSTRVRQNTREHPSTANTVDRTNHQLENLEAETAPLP
# Chain of Delta-type opioid receptor (P33533 whole entry): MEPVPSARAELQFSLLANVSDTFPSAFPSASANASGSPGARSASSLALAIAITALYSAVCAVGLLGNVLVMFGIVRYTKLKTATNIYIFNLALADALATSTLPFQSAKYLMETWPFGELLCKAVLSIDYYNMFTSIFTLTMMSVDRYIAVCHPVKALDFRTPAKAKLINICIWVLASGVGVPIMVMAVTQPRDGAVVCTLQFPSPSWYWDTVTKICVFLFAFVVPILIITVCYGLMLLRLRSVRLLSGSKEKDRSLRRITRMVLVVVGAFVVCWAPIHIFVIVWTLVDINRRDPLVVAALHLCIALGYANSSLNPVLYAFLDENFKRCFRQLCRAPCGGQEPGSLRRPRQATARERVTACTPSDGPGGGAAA
# Chain of Kappa-type opioid receptor (P34975 whole entry): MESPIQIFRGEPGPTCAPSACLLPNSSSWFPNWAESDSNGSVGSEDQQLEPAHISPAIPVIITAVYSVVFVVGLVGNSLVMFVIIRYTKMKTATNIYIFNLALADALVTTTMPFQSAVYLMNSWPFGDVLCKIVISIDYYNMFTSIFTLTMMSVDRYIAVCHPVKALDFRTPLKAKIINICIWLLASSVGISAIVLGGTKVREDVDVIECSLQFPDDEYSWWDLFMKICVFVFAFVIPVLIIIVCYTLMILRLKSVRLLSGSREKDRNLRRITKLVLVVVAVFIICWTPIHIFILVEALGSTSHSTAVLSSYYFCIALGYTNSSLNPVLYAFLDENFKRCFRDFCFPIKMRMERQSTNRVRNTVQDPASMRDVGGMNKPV
Structure (SMILES),Ki [1] [nM],Ki [2] [nM],Ki (Mu-type opioid receptor) [nM]
Oc1ccc2c3c1OC1c4[nH]c5c(c4CC4(O)CN(CCC314)C(C1CC1)C2)CC1(O)CN2CCC13c1c(ccc(O)c1OC53)CC2C1CC1 (stereo unspecified) [CAS_105618-26-6],38.8,–,–
CCO[C@@]12Cc3c([nH]c4ccccc34)[C@]3(C)Oc4c(O)ccc5c4[C@@]31CCN(CC1CC1)C2C5 [HS-378],–,528,–
COC12CCC(=O)C3(C)Oc4c(O)ccc5c4C31CCN(C)C2C5 (stereo unspecified) [NSC_125489],25.2,–,0.48
COc1cccc2c1C13CCN(CC4CC4)C(C2)C1(OC)CCC(=O)C3 (stereo unspecified) [NSC_3081671],–,–,15.1
CC(C)[C@H](NC(=O)[C@H](CCC(=O)O)NC(=O)[C@H](Cc1ccccc1)NC(=O)[C@@H](C)NC(=O)[C@@H](N)Cc1ccc(O)cc1)C(=O)N[C@H](C(=O)NCC(N)=O)C(C)C [Tyr-D-Ala-Phe-Glu-Val-Val-GlyNH2],–,48.3,–
